For 13 molecules, IC50 results are on record in patent US12564638B2 (SHANGHAITECH UNIVERSITY, priority 2019, dated 2026).

Read-outs that look alike come from different tables or passages of the source.

Holding throughout (assay type): cell-based
Assay [1] concerns HCC827 cells (EGFR Exon19 del, non-small cell lung cancer cells). The experiment in a line: Cell viability assay (WST/CCK8), HCC827 cells. As to conditions: Homo sapiens, HCC827, 72 h, HCC827 (Exon19 Del), 72 hours, read-out: IC50 (half inhibitory concentration). The method in brief: (§1)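 Cells seeded at 3 000/well in RPMI1640 complete medium, dosed next day with compounds (top 10 μM, 3-fold, 10 points) for 72 h. Viability read with WST (CCK8) reagent; DMSO as negative control, EGFR TKIs as positive controls; IC50 determined.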

The subject of assay [2] is PC9 DCT (Del19+T790M+C797S) cells. The experiment in a line: Cell viability assay, PC9 cells with EGFR triple mutation. As to conditions: Homo sapiens, PC-9; Table 9; PC9 (Del + T790M + C797S), EGFR triple mutations; read-out: IC50 (half inhibitory concentration). The source says: Construction of EGFR triple mutant cell line PC9 DCT (Dell9+T790M+C797S): The cDNA expressing human EGFR was cloned into pLVX vector, and exon 19 deletion mutation (746-750) and T790M mutation were introduced by point mutation and C797S mutation. Transferred into PC9 cells by lentiviral packaging. Cells stably expressing EGFR triple mutations were obtained by fluorescence screening.
The cDNA sequence expressing human EGFR was cloned into a pLVX vector (GFP^+), and then introduce the EGFR exon 19 deletion (746-750), exon 20 T790M and C797S mutations by were generated by site-directed mutagenesis. The PC9 cells were infected with lentivirus containing the indicated EGFR mutations, and the cells stably expressing EGFR triple mutation were obtained by fluorescence screening.
All of the half inhibitory concentrations (IC50) of these compounds of the present invention were determined with WST reagent from Fuyuan Biotec Company. The specific experiment procedures are as follows: Cancer cells were planted in 96-well-plate at the density of 3 000 cells per well with 100 μL RPMI1640 completed culture medium. In the next day, compounds with indicated concentrations were added to the cells, DMSO was used as the negative control and the EGFR TKIs were used to treat cells as the positive groups. After 72 hours drug treatment, cell viability was measured by using the WST reagent following the instructions. The growth inhibition curve of the compounds on cells were plotted by Prism GraphPad, and the compounds IC50 calculated from it.
The cell viability assays were taken to determine the anti-tumor activity of these indicated compounds in PC9 cells, which overexpressed Exon 19del+T790M+C797S triple mutant EGFR.

For assay [3], the system named is PC9 cells (EGFR Exon 19 del, non-small cell lung cancer cells). The experiment in a line: Cell viability assay (WST/CCK8), PC9 cells. The conditions noted are these: Homo sapiens, PC-9; Table 6, canertinib-based compounds; PC9 (Exon19 Del); 72 hours; WST; read-out: IC50 (half inhibitory concentration). The gist of the method: as §1
For assay [4], the system named is H1975 (EGFR T790M+L858R mutation, non-small cell lung cancer cell line). Nature of the assay: Cell viability assay (WST/CCK8), H1975 cells. The conditions noted are these: Homo sapiens, NCI-H1975; Table 7, canertinib-based compounds; H1975 (L858R + T790M); read-out: IC50 (half inhibitory concentration). The method in brief: (§2)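 Cells seeded at 3 000 per well in RPMI1640 complete medium, dosed next day with compounds at indicated concentrations (DMSO negative control, EGFR TKIs as positive control).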

Assay [5] concerns PC9BracA1 (EGFR Exon 19 del+T790M, non-small cell lung cancer cells). The experiment in a line: Cell viability assay (WST/CCK8), PC9Brac1 cells. As to conditions: Table 7, canertinib-based compounds; PC9Brca1 (Ex19del + T790M); read-out: IC50 (half inhibitory concentration). The method in brief: as §2
Assay [6] has as its system BT474 cells (HER2 positive breast cancer cells). The experiment in a line: Cell viability assay (CCK8), BT474 cells. The conditions noted are these: Homo sapiens, BT-474, Table 10, BT474, 72 hours, read-out: IC50 (half inhibitory concentration). The method in brief:
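HER2-overexpressing BT474 cells in RPMI1640 were exposed to compounds for 72 hours over 10 concentrations (3-fold dilution, top 10 μM). Viability was measured with CCK8 reagent against a DMSO control, and IC50 was taken from growth inhibition curves.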

[7] abbreviates: Table 3, poziotinib-based compounds, WST (CCK8).
The mark [8] stands for this setting: Table 6, canertinib-based compounds, WST.

Consider `COc1cc2ncnc(Nc3ccc(Cl)c(Cl)c3F)c2cc1OC1CCN(C(=O)CSc2cccc3c2CN(C2CCC(=O)NC2=O)C3=O)CC1` (centres unmarked) [SIAIS219164, 3-(4-((2-(4-((4-((3,4-dichloro-2-fluorophenyl)amino)-7-methoxyquinazolin-6-yl)oxy)piperidin-1-yl)-2-oxoethyl)thio)-1-oxoisoindolin-2-yl)piperidine-2,6-dione], for which the IC50 in assay [1] (setting [7]) turned out to be 33 nM; in assay [2], 4.8 nM.
As for `COc1cc2ncnc(Nc3ccc(Cl)c(Cl)c3F)c2cc1OC1CCN(C(=O)CCCSc2cccc3c2CN(C2CCC(=O)NC2=O)C3=O)CC1` (centres unmarked) [SIAIS219166, 3-(4-((4-(4-((4-((3,4-dichloro-2-fluorophenyl)amino)-7-methoxyquinazolin-6-yl)oxy)piperidin-1-yl)-4-oxobutyl)thio)-1-oxoisoindolin-2-yl)piperidine-2,6-dione], the IC50 was 30 nM in assay [1] (setting [7]) and 4.6 nM in assay [2].
Taken in the same sequence, the figures for `COc1cc2ncnc(Nc3ccc(Cl)c(Cl)c3F)c2cc1OC1CCN(C(=O)CCCCSc2cccc3c2CN(C2CCC(=O)NC2=O)C3=O)CC1` (centres unmarked) [SIAIS219167, 3-(4-((5-(4-((4-((3,4-dichloro-2-fluorophenyl)amino)-7-methoxyquinazolin-6-yl)oxy)piperidin-1-yl)-5-oxopentyl)thio)-1-oxoisoindolin-2-yl)piperidine-2,6-dione] were 31 nM and 4.1 nM.
As to `COc1cc2ncnc(Nc3ccc(Cl)c(Cl)c3F)c2cc1OC1CCN(C(=O)CCCCCSc2cccc3c2CN(C2CCC(=O)NC2=O)C3=O)CC1` (centres unmarked) [SIAIS219168, 3-(4-((6-(4-((4-((3,4-dichloro-2-fluorophenyl)amino)-7-methoxyquinazolin-6-yl)oxy)piperidin-1-yl)-6-oxohexyl)thio)-1-oxoisoindolin-2-yl)piperidine-2,6-dione], the IC50 in assay [1] (setting [7]) is 40 nM; in assay [2], 2.9 nM.
As to `COc1cc2ncnc(Nc3ccc(Cl)c(Cl)c3F)c2cc1OC1CCN(C(=O)CCCCCCSc2cccc3c2CN(C2CCC(=O)NC2=O)C3=O)CC1` (centres unmarked) [SIAIS219169, 3-(4-((7-(4-((4-((3,4-dichloro-2-fluorophenyl)amino)-7-methoxyquinazolin-6-yl)oxy)piperidin-1-yl)-7-oxoheptyl)thio)-1-oxoisoindolin-2-yl)piperidine-2,6-dione], the IC50 in assay [1] (setting [7]) was 38 nM; in assay [2], 3.6 nM.
Take `C=CC(=O)Nc1cc2c(Nc3ccc(F)c(Cl)c3)ncnc2cc1OCCCN1CCN(C(=O)CNc2cccc3c2C(=O)N(C2CCC(=O)NC2=O)C3=O)CC1` (centres unmarked) [SIAIS262124, N-(4-((3-chloro-4-fluorophenyl)amino)-7-(3-(4-(2-((2-(2,6-dioxopiperidin-3-yl)-1,3-dioxoisoindolin-4-yl)amino)acetyl)piperazin-1-yl)propoxy)quinazolin-6-yl)acrylamide]: the IC50 in assay [1] (setting [8]) is 10.3 nM; in assay [3], 2.6 nM; in assay [4], 413 nM; in assay [5], 419 nM; in assay [6], 16.4 nM.
The like results for `C=CC(=O)Nc1cc2c(Nc3ccc(F)c(Cl)c3)ncnc2cc1OCCCN1CCN(C(=O)CCCCCCNc2cccc3c2C(=O)N(C2CCC(=O)NC2=O)C3=O)CC1` (centres unmarked) [SIAIS262126, N-(4-((3-chloro-4-fluorophenyl)amino)-7-(3-(4-(7-((2-(2,6-dioxopiperidin-3-yl)-1,3-dioxoisoindolin-4-yl)amino)heptanoyl)piperazin-1-yl)propoxy)quinazolin-6-yl)acrylamide] were, in that order, 2.5 nM, 2.3 nM, 20 nM, 85 nM and 17.6 nM.
Consider `C=CC(=O)Nc1cc2c(Nc3ccc(F)c(Cl)c3)ncnc2cc1OCCCN1CCN(CCCCC#CC2c3ccccc3C(=O)N2C2CCC(=O)NC2=O)CC1` (centres unmarked) [SIAIS262131, N-(4-((3-chloro-4-fluorophenyl)amino)-7-(3-(4-(6-(2-(2,6-dioxopiperidin-3-yl)-3-oxoisoindolin-1-yl)hex-5-yn-1-yl)piperazin-1-yl)propoxy)quinazolin-6-yl)acrylamide], for which the IC50 is 1.2 nM in assay [1] (setting [8]); 29.3 nM in assay [3]; 45 nM in assay [4]; 216 nM in assay [5]; 5.1 nM in assay [6].
With `C=CC(=O)Nc1cc2c(Nc3ccc(F)c(Cl)c3)ncnc2cc1OCCCN1CCC(N2CCN(C(=O)CSc3cccc4c3CN(C3CCC(=O)NC3=O)C4=O)CC2)CC1` (centres unmarked) [SIAIS262174, N-(4-((3-chloro-4-fluorophenyl)amino)-7-(3-(4-(4-(2-((2-(2,6-dioxopiperidin-3-yl)-1-oxoisoindolin-4-yl)thio)acetyl)piperazin-1-yl)piperidin-1-yl)propoxy)quinazolin-6-yl)acrylamide], the IC50 in assay [1] (setting [8]) turned out to be 11 nM; in assay [3], 16.7 nM; in assay [4], 287 nM; in assay [5] it was 267 nM; in assay [6], 28.2 nM.
Consider `C=CC(=O)Nc1cc2c(Nc3ccc(F)c(Cl)c3)ncnc2cc1OCCCN1CCC(N2CCN(C(=O)CCCCCSc3cccc4c3CN(C3CCC(=O)NC3=O)C4=O)CC2)CC1` (centres unmarked) [SIAIS262176, N-(4-((3-chloro-4-fluorophenyl)amino)-7-(3-(4-(4-(6-((2-(2,6-dioxopiperidin-3-yl)-1-oxoisoindolin-4-yl)thio)hexanoyl)piperazin-1-yl)piperidin-1-yl)propoxy)quinazolin-6-yl)acrylamide], for which the IC50 in assay [1] (setting [8]) is 3.3 nM; in assay [3], 15.8 nM; in assay [4], 67 nM; in assay [5] it was 472 nM; in assay [6], 1.4 nM.
Regarding `C=CC(=O)Nc1cc2c(Nc3ccc(F)c(Cl)c3)ncnc2cc1OCCCN1CCC(N2CCN(C(=O)CNc3cccc4c3C(=O)N(C3CCC(=O)NC3=O)C4=O)CC2)CC1` (centres unmarked) [SIAIS262177, N-(4-((3-chloro-4-fluorophenyl)amino)-7-(3-(4-(4-(2-((2-(2,6-dioxopiperidin-3-yl)-1,3-dioxoisoindolin-4-yl)amino)acetyl)piperazin-1-yl)piperidin-1-yl)propoxy)quinazolin-6-yl)acrylamide], the IC50 in assay [1] (setting [8]) stood at 5.7 nM; in assay [3], 3.4 nM; in assay [4], 654 nM; in assay [5] it was 209 nM; in assay [6], 8.2 nM.
Turning to `C=CC(=O)Nc1cc2c(Nc3ccc(F)c(Cl)c3)ncnc2cc1OCCCN1CCC(N2CCN(C(=O)CCCCCNc3cccc4c3C(=O)N(C3CCC(=O)NC3=O)C4=O)CC2)CC1` (centres unmarked) [SIAIS262178, N-(4-((3-chloro-4-fluorophenyl)amino)-7-(3-(4-(4-(6-((2-(2,6-dioxopiperidin-3-yl)-1,3-dioxoisoindolin-4-yl)amino)hexanoyl)piperazin-1-yl)piperidin-1-yl)propoxy)quinazolin-6-yl)acrylamide], the IC50 in assay [1] (setting [8]) came to 5.2 nM; in assay [3], 0.4 nM; in assay [4], 38 nM; in assay [5], 69 nM; in assay [6], 2.1 nM.
For `C=CC(=O)Nc1cc2c(Nc3ccc(F)c(Cl)c3)ncnc2cc1OCCCN1CCC(N2CCN(C(=O)CCCCCCNc3cccc4c3C(=O)N(C3CCC(=O)NC3=O)C4=O)CC2)CC1` (centres unmarked) [SIAIS262179, N-(4-((3-chloro-4-fluorophenyl)amino)-7-(3-(4-(4-(7-((2-(2,6-dioxopiperidin-3-yl)-1,3-dioxoisoindolin-4-yl)amino)heptanoyl)piperazin-1-yl)piperidin-1-yl)propoxy)quinazolin-6-yl)acrylamide], the IC50 came out at 2.5 nM in assay [1] (setting [8]); 10.3 nM in assay [3]; 43 nM in assay [4]; 181 nM in assay [5]; 14.6 nM in assay [6].
